Source: article PMC9606102, “[^89Zr]Zr-PSMA-617 PET/CT in biochemical recurrence of prostate cancer: first clinical experience from a pilot study including biodistribution and dose estimates” (European Journal of Nuclear Medicine and Molecular Imaging, 2022)
Several values for one entry are separate records, joined by “and”; a condition that tells them apart may be missing. Equal values may be shown once.

Experiments:
prostate cancer lesions = assay: [^89Zr]Zr-PSMA-617 PET/CT tumor lesion detection and uptake in biochemical recurrence; type: in vivo, human (patients)
Protocol: Three patients had undetermined findings on [^68Ga]Ga-PSMA-11 PET/CT with no definite assignment to pathological or physiological uptake, e.g., faintly accumulating or unusually located tracer uptake. The time interval between both, [^89Zr]Zr-PSMA-617 and [^68Ga]Ga-PSMA-11 PET/CT, was 31 ± 18 days (range 5–49 days), with no treatment performed in between. Prostate-specific antigen (PSA) serum level at time of imaging ranged from 0.43 to 1.92 ng/ml. All patients were initially treated with radical prostatectomy (RP). Initial Gleason score ranged from 7a to 9. Four patients underwent salvage treatments such as androgen-deprivation therapy (ADT), lymphadenectomy (LA) or radiation therapy (RT). Detailed patient characteristics including age, Gleason score, primary therapy, salvage therapies, time from initial diagnosis (ID) of prostate cancer, PSA and PSA doubling time (DT) are presented in Table 1. [^89Zr]Zr-PSMA-617 PET/CT imaging was performed on a compassionate use basis under the German Pharmaceutical Act §13 (2b). The medical indication for the examination and the labeling of the tracer were under the direct responsibility of the applying physician. Patients gave their written consent after being thoroughly informed about the general risks of both radiation exposure and application of a novel PET tracer including possible adverse effects of, e.g., therapeutic PSMA tracers. Furthermore, all patients agreed to the publication of the resulting data in accordance with the Declaration of Helsinki.
(§1) Each patient underwent PET/CT imaging scans at 4 time points: 1 h, 24 h, 48 h, and 72 h post intravenous injection (p.i.) of 111 ± 11 MBq (mean ± standard deviation, range 97–129 MBq) [^89Zr]Zr-PSMA-617. All PET/CT imaging was performed on a Biograph mCT 40 scanner (Siemens Medical Solutions, Knoxville, TN, USA) comprising whole-body PET/CT scans extending from vertex to mid-femur in 3D mode. PET acquisition time duration was 4 min per bed position on the initial day of injection and extended up to 10 min on the last day. CT data were acquired in low-dose technique using an X-ray tube voltage of […] and a modulation of the tube current (CARE Dose4D, Siemens Erlangen; maximal tube current 30 mA) followed by reconstruction with a soft tissue reconstruction kernel (B31f) to a slice thickness of 5 mm (increment 2–4 mm). PET emission data was corrected for decay, randoms, and scatter. PET image reconstruction was performed applying an iterative 3-dimensional ordered-subset expectation maximization (OSEM) algorithm (3 iterations; 24 subsets) with gaussian filtering to a transaxial resolution of 5 mm at full width half maximum (FWHM). The matrix and the pixel size were 200 × 200 and 3.0 mm, respectively. Attenuation correction was performed using the low-dose CT data.
Three physicians with long-time experience in PSMA-targeted PET/CT (S.E., F.K., and F.R.) visually identified suspicious lesions taking into account all four imaging time points (1 h, 24 h, 48 h, and 72 h p.i.).

[1] = Radiation dosimetry of [^89Zr]Zr-PSMA-617 (QDOSE / IDAC 2.1); type: in vivo, human (patients); set-up: TIAC (time-integrated activity coefficient): unit not given here
Protocol: as §1
Mean absorbed radiation doses were estimated using the QDOSE program package (ABX-CRO, Dresden, Germany) considering the following organs as source organs: kidneys, liver, spleen, salivary glands (parotid gland and submandibular gland), and lacrimal gland. As a first step, volumetric co-registration of the different time points was performed by taking the first CT scan as reference. PET images, which were coupled to the CT images of the respective imaging session, were transformed according to the CT transformation matrix. Boundary VOIs which solely enclosed the source organs without interfering with the activity concentration of neighboring structures were manually drawn in the PET image that allowed the best organ delineation and then copied onto all other time-point scans. Manual adjustment of the boundary VOI for each time point was done when necessary, using the respective CT. Volume and activity estimation were performed within the boundary applying a fuzzy locally adaptive Bayesian (FLAB) segmentation algorithm for automatic volume delineation. The next step comprised mono-exponential regression of the serial measured activities using weighted least squares method and estimation of both, the time integrated activities (TIA) and the time-integrated activity coefficients (TIAC) in the source regions. As an approximation, a linear increase from t = 0 to the first acquisition time point was assumed, and the integration method for the first time interval was based on the trapezoidal method. Between the first and the last time point, a trapezoidal integration was used, whereas the TIA from the last time-point to infinity was calculated analytically by applying the mono-exponential fitting curve. The respective TIACs (often termed residence time) of the source organs were calculated by normalizing the TIA to the amount of activity administered. The total body TIA was calculated approximately using the total FOV volume of interest and the injected activity. As a further approximation, constant activity between t = 0 and the first acquisition time point was assumed, and the integration method for the first-time interval was based on the trapezoidal method. Between the first time point and infinity, the TIA was calculated analytically by using the mono-exponential fitting curve. Estimations of absorbed organ dose and effective dose were performed by the IDAC 2.1 software which is implemented in QDOSE [25–27]. The IDAC reference man was applied for the kidneys, the spleen, the liver, the heart and the intestine, and the sphere model for the salivary and lacrimal glands. […]

[2] = of the 11 lesions not visible at 1 h p.i.

O=C([O-])CN1CCN(CC(=O)[O-])CCN(CC(=O)NCC2CCC(C(=O)NC(Cc3ccc4ccccc4c3)C(=O)NCCCCC(NC(=O)NC(CCC(=O)O)C(=O)O)C(=O)O)CC2)CCN(CC(=O)[O-])CC1.[89Zr+4] (stereo not drawn) [[^89Zr]Zr-PSMA-617]
Patients whose undetermined [^68Ga]Ga-PSMA-11 findings were confirmed (prostate cancer lesions; 3 patients with undetermined findings in [^68Ga]Ga-PSMA-11 PET/CT): 2 of 3 | Detectability of tumor lesions at late time points (prostate cancer lesions; 48 h p.i. and 72 h p.i.): All tumor lesions were detectable | Findings on [^89Zr]Zr-PSMA-617 PET/CT (prostate cancer lesions; Pt. no 1, PSA 1.92 ng/ml): Local recurrence | Findings on [^89Zr]Zr-PSMA-617 PET/CT (prostate cancer lesions; Pt. no 2, PSA 1.75 ng/ml): 3 × LNM (no right iliac LNM) | Findings on [^89Zr]Zr-PSMA-617 PET/CT (prostate cancer lesions; Pt. no 3, PSA 0.66 ng/ml): No suspicious findings | Findings on [^89Zr]Zr-PSMA-617 PET/CT (prostate cancer lesions; Pt. no 4, PSA 1.77 ng/ml): Peritoneal metastasis + 4 × LNM | Findings on [^89Zr]Zr-PSMA-617 PET/CT (prostate cancer lesions; Pt. no 5, PSA 0.63 ng/ml): 1 × LNM | Findings on [^89Zr]Zr-PSMA-617 PET/CT (prostate cancer lesions; Pt. no 6, PSA 0.43 ng/ml): Local recurrence (in seminal vesicle bed) | Findings on [^89Zr]Zr-PSMA-617 PET/CT (prostate cancer lesions; Pt. no 7, PSA 0.68 ng/ml): Local recurrence + 2 × LNM | Total number of lesions suggestive for prostate cancer (prostate cancer lesions; all 7 patients, range 1–5 per patient): 14 lesions | Tumor lesions identified at 1 h p.i. (also visible in [^68Ga]Ga-PSMA-11 PET/CT) (prostate cancer lesions; in 3 patients): Three | Patients with at least one prostate cancer lesion detected (prostate cancer lesions; of 7 patients with negative or undetermined [^68Ga]Ga-PSMA-11 PET/CT): 6 patients | Peritoneal metastases among identified lesions (prostate cancer lesions; of n = 14 lesions): 1 lesions | Tumor lesions not visible at 1 h p.i. but delineated at later time points (prostate cancer lesions; of n = 14 lesions): 11 lesions | Local recurrences among identified lesions (prostate cancer lesions; of n = 14 lesions, in 3 patients): 3 lesions | Lymph node metastases among identified lesions (prostate cancer lesions; of n = 14 lesions, in 4 patients): 10 lesions | Tumor lesions first visible at 24 h p.i. (prostate cancer lesions; [2]): 9 lesions | Tumor lesions first visible at 48 h p.i. (prostate cancer lesions; [2]): 2 lesions | SUVmax of tumor lesion (prostate cancer lesions; patient no. 1, focal uptake in the prostate bed (local recurrence), 48 h p.i.): 3.68 | SUVmax of tumor lesion (prostate cancer lesions; patient no. 4, peritoneal lesion (peritoneal metastasis), 48 h p.i.): 2.87 | SUVmax of tumor lesion (prostate cancer lesions; patient no. 6, local recurrence in left seminal vesicle bed, 1 h p.i.): 7.04 | SUVmax of tumor lesion (prostate cancer lesions; patient no. 6, local recurrence in left seminal vesicle bed, 24 h p.i.): 21.27 | SUVmax of tumor lesion (prostate cancer lesions; patient no. 6, local recurrence in left seminal vesicle bed, 48 h p.i.): 21.09 | SUVmax of tumor lesion (prostate cancer lesions; patient no. 6, local recurrence in left seminal vesicle bed, 72 h p.i.): 19.19 | SUVmax of tumor lesion (prostate cancer lesions; patient no. 7, pelvic lymph node metastasis, 48 h p.i.): 8.06 | Overall effective dose, times higher than PET with [^68Ga]Ga-PSMA-617 or [^68Ga]Ga-PSMA-11 ([1]; 111 MBq vs diagnostic activity of 200 MBq of the 68Ga tracers (ref 29, 30)): 2–3 times | Effective dose ([1]; average of 7 patients, mean ± SD): 0.0913 ± 0.0118 mSv/MBq | Absorbed doses of parotid glands and kidneys, times higher than [^68Ga]Ga-PSMA-617 and [^68Ga]Ga-PSMA-11 ([1]; in absolute numbers, comparators ref 29, 30): 3–4 times | TIAC (time-integrated activity coefficient) ([1]; kidneys, mean ± SD): 1.74 ± 0.44 | l (rate constant) ([1]; kidneys, mean ± SD): 0.022 ± 0.002 h⁻¹ | A (% injected A0), monoexponential curve-fitting parameter ([1]; kidneys, mean ± SD, n = 7 patients): 3.75 ± 1.24 % injected A0 | Absorbed dose ([1]; kidneys, mean ± SD, IDAC 2.1): 0.517 ± 0.125 mGy/MBq | A (% injected A0), monoexponential curve-fitting parameter ([1]; lacrimal gland, mean ± SD): 0.02 ± 0.01 % injected A0 | l (rate constant) ([1]; lacrimal gland, mean ± SD): 0.030 ± 0.006 h⁻¹ | Absorbed dose ([1]; lacrimal gland, mean ± SD, sphere model): 0.156 ± 0.070 mGy/MBq | A (% injected A0), monoexponential curve-fitting parameter ([1]; liver, mean ± SD): 6.62 ± 1.39 % injected A0 | TIAC (time-integrated activity coefficient) ([1]; liver, mean ± SD): 1.54 ± 0.49 | l (rate constant) ([1]; liver, mean ± SD): 0.049 ± 0.014 h⁻¹ | Absorbed dose ([1]; liver, mean ± SD, IDAC 2.1): 0.158 ± 0.051 mGy/MBq | A (% injected A0), monoexponential curve-fitting parameter ([1]; parotid gland, mean ± SD): 0.70 ± 0.20 % injected A0 | TIAC (time-integrated activity coefficient) ([1]; parotid gland, mean ± SD): 0.31 ± 0.10 | l (rate constant) ([1]; parotid gland, mean ± SD): 0.031 ± 0.005 h⁻¹ | Absorbed dose ([1]; parotid gland, mean ± SD, sphere model): 0.601 ± 0.185 mGy/MBq | A (% injected A0), monoexponential curve-fitting parameter ([1]; spleen, mean ± SD): 1.25 ± 0.70 % injected A0 | TIAC (time-integrated activity coefficient) ([1]; spleen, mean ± SD): 0.21 ± 0.12 | l (rate constant) ([1]; spleen, mean ± SD): 0.079 ± 0.034 h⁻¹ | Absorbed dose ([1]; spleen, mean ± SD, IDAC 2.1): 0.175 ± 0.068 mGy/MBq | A (% injected A0), monoexponential curve-fitting parameter ([1]; submandibular gland, mean ± SD): 0.27 ± 0.09 % injected A0 | TIAC (time-integrated activity coefficient) ([1]; submandibular gland, mean ± SD): 0.13 ± 0.04 | l (rate constant) ([1]; submandibular gland, mean ± SD): 0.029 ± 0.004 h⁻¹ | Absorbed dose ([1]; submandibular gland, mean ± SD, sphere model): 0.468 ± 0.136 mGy/MBq and 0.468 ± 0.185 mGy/MBq
